Assay results published in ChEMBL document CHEMBL1201862, “PubChem BioAssay data set” (2004).
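Interpolation was linear, between the two tested concentrations surrounding the appropriate level; five concentrations were tested over 48 hours in 96-well plates. GI50 marks 50% less growth.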 Active and inactive are the calls of the source. Cut-off read from the data, not from the text of the source: active = GI50 up to about 1.1 µM and inactive = higher.

How the values were obtained:
Assay in all cases: DTP human tumour cell line panel, 48 h
[1] = system: SF-539
[2] = system: KM12
[3] = system: NCI-H522
[4] = system: UACC-257
[5] = system: SR
[6] = system: NCI/ADR-RES
[7] = system: MOLT-4
[8] = system: SNB-75
[9] = system: TK-10
[10] = system: CCRF-CEM
[11] = system: COLO 205
[12] = system: ACHN
[13] = system: OVCAR-5
[14] = system: CAKI-1
[15] = system: SN12C
[16] = system: HT-29
[17] = system: U-251
[18] = system: OVCAR-4
[19] = system: HCC 2998
[20] = system: RXF 393

Measured: GI50

CC1(C)CC(=O)c2c(nc3c(ccc4ccccc43)c2-c2ccc(NC(=O)CCCCCCCCC(=O)Nc3ccc(-c4c5c(nc6c4ccc4ccccc46)CC(C)(C)CC5=O)cc3)cc2)C1
inactive: [1] > 100 µM | [2] > 100 µM | [3] > 100 µM | [4] > 100 µM | [5] > 100 µM | [6] > 100 µM | [7] > 100 µM | [8] > 100 µM | [9] > 100 µM | [10] > 100 µM | [11] > 100 µM | [12] > 100 µM | [13] > 100 µM | [14] > 100 µM | [15] > 100 µM | [16] > 100 µM | [17] > 100 µM

CCOC(=O)/C(C(=O)NC(C)C)=C(/N)N1CCOCC1
inactive: [1] > 100 µM | [2] > 100 µM | [3] > 100 µM | [4] > 100 µM | [6] > 100 µM | [18] > 100 µM | [7] > 100 µM | [19] > 100 µM | [8] > 100 µM | [9] > 100 µM | [20] > 100 µM | [10] > 100 µM | [11] > 100 µM | [12] > 100 µM | [13] > 100 µM | [14] > 100 µM | [15] > 100 µM | [16] > 100 µM | [17] > 100 µM

CSc1nc(C)c2c(n1)SCC2
inactive: [1] > 10 µM | [2] > 10 µM | [4] > 10 µM | [5] > 10 µM | [6] > 10 µM | [18] > 10 µM | [7] > 10 µM | [8] > 10 µM | [9] > 10 µM | [20] > 10 µM | [10] > 10 µM | [11] > 10 µM | [12] > 10 µM | [13] > 10 µM | [14] > 10 µM | [15] > 10 µM | [16] > 10 µM | [17] > 10 µM

CC1(C)C[C@H]2C3=CC[C@@H]4[C@@]5(C)CC[C@H](O)C(C)(C)[C@@H]5CC[C@@]4(C)[C@]3(C)C[C@@H](O)[C@@]23C[C@@H]1OC3=O
inactive: [1] > 100 µM | [2] 70.3 µM | [3] 56.5 µM | [4] > 100 µM | [5] > 100 µM | [6] 72.4 µM | [18] 37.2 µM | [7] 49.2 µM | [19] 96.8 µM | [8] > 100 µM | [9] > 100 µM | [10] > 100 µM | [11] 44.8 µM | [12] > 100 µM | [13] > 100 µM | [14] > 100 µM | [15] > 100 µM | [16] 50.2 µM | [17] > 100 µM

Cc1cc(S(=O)(=O)Nc2nnc3ccccn23)c(S)cc1Cl
inactive: [1] > 100 µM | [2] 38.1 µM | [3] > 100 µM | [4] > 100 µM | [5] > 100 µM | [6] > 100 µM | [18] > 100 µM | [7] 71.6 µM | [19] > 100 µM | [9] > 100 µM | [10] > 10 µM | [11] > 100 µM | [12] > 100 µM | [13] > 100 µM | [15] > 100 µM | [16] > 100 µM | [17] 47.9 µM

CSCCC(NC(=O)C(Cc1ccccc1)NC(=O)CNC(=O)CNC(=O)C(N)Cc1ccc(O)cc1)C(=O)O (stereo unspecified)
inactive: [1] > 100 µM | [2] > 100 µM | [3] > 100 µM | [4] > 100 µM | [6] > 100 µM | [18] > 100 µM | [7] > 100 µM | [19] > 100 µM | [8] > 90.2 µM | [20] > 100 µM | [10] > 100 µM | [11] > 100 µM | [13] > 55.5 µM | [14] > 100 µM | [15] > 100 µM | [16] > 100 µM | [17] > 100 µM

O=P1(c2ccccc2)C2=CCC=CC2C(c2ccccc2)N1Cc1ccccc1 (stereo unspecified)
inactive: [1] 17.4 µM | [2] 12.9 µM | [3] 11.4 µM | [4] 20.1 µM | [5] 24.2 µM | [6] 14.5 µM | [7] 16.1 µM | [9] 20 µM | [10] 15.5 µM | [11] 15.5 µM | [12] 16.7 µM | [13] > 100 µM | [14] 13.7 µM | [15] 15.6 µM | [16] 11.6 µM | [17] 14.3 µM

Cc1ccc(OCC2OC(n3cnc4nc(N)nc(Cl)c43)CC2Oc2ccc(C)cc2)cc1 (stereo unspecified)
inactive: [1] 23.3 µM | [2] 21 µM | [3] 15.7 µM | [4] 34.1 µM | [5] 6.71 µM | [6] 15.9 µM | [18] 23.2 µM | [7] 4.51 µM | [19] 15.8 µM | [8] 11 µM | [9] 31.1 µM | [10] 45.1 µM | [11] 16.8 µM | [12] 15.2 µM | [13] 18.3 µM | [14] 4.08 µM | [15] 15.8 µM | [16] 23.7 µM | [17] 29.6 µM

O=C1CSC(c2ccc(Cl)cc2)N1c1ccc(Oc2ccc(Cl)cc2)c(Cl)c1 (stereo unspecified)
inactive: [1] 14.6 µM | [2] 15.7 µM | [3] 7.13 µM | [4] 18.2 µM | [5] 18.4 µM | [6] 17.4 µM | [18] 14.7 µM | [7] 14.2 µM | [19] 17.2 µM | [8] 12.3 µM | [9] 18.7 µM | [10] 5.46 µM | [11] 18.2 µM | [12] 17.4 µM | [13] 14.2 µM | [14] 13.3 µM | [15] 20 µM | [16] 18.6 µM | [17] 16.6 µM

COc1cc(C2SCC(=O)N2c2cc(Cl)c(Cl)cc2Cl)cc(OC)c1OC (stereo unspecified)
inactive: [1] 43.1 µM | [2] 31.3 µM | [3] 46 µM | [4] 36.8 µM | [5] 26.4 µM | [6] 34.4 µM | [18] 38.6 µM | [7] 23.9 µM | [19] 32.1 µM | [9] > 100 µM | [10] 25.4 µM | [11] 39.5 µM | [12] 42.3 µM | [13] > 100 µM | [14] 28.7 µM | [15] 36.5 µM | [16] 76.7 µM | [17] 77.8 µM

CC(=O)Nc1cccc(/N=N/N(C)C)c1
inactive: [1] > 100 µM | [2] > 100 µM | [3] > 100 µM | [4] > 100 µM | [6] > 100 µM | [18] > 100 µM | [7] > 100 µM | [19] > 100 µM | [8] > 49.3 µM | [20] > 100 µM | [10] > 100 µM | [11] > 100 µM | [13] > 100 µM | [14] > 100 µM | [15] > 100 µM | [16] > 100 µM | [17] > 100 µM
